From US8404266B2, “Method for stabilization of S-nitrosoglutathione and composition prepared by the same” (Pharmagenix AG, priority 2008, dated 2013)

Experiment: GSNO decomposition at different pH values, monitored spectrophotometrically at 540 nm (FIG. 3)
Type: physicochemical
From the text: The GSNO is a brown colored compound having a characteristic absorption spectrum. One of its two characteristic peaks is in the UV range, while the maximum of the other is around 540 nm. During decomposition the absorption spectrum of GSNO goes through a change. The change in the height of the peak at 540 nm is linearly proportional with the concentration of GSNO. Wavelengths at far IR range can be used as background absorption, since no change occurs in them during the decomposition process of GSNO. These features allow monitoring the concentration of GSNO spectrophotometrically. […] On the X-axis the time (given in days) and on the Y-axis absorbency values are given. Symbols Indicate the Following pH Values: • *: pH=0.3; • ♦: pH=4.26; • □: pH=7.4; • ▪: pH=8.6; • ◯: pH=12.6. The decomposition of GSNO was monitored spectrophotometrically, since the absorption spectrum of GSNO undergoes changes and the size change of the peak at 540 nm is linearly proportional with the concentration of GSNO. Wavelengths at far IR range were used as background absorption, since no change occurs in them during the decomposition of GSNO.

GSNO metabolism (decomposition) (more alkaline conditions, curve of pH 12): gets accelerated | stability (pH about 8.6, compared with conventionally applied pH 4.26): very good stability | pH range of plateau-like maximum of stability (pH range): 7.5 to 10 | metabolic rate of GSNO (under alkaline conditions): significantly be decreased
Compound: N[C@@H](CCC(=O)N[C@@H](CSN=O)C(=O)NCC(=O)O)C(=O)O [GSNO, S-nitrosoglutathione]
